Test results published in patent US10954216B2, “BMP-signal-inhibiting compound” (RIKEN, priority 2016, dated 2021).
pIC50: −log10 of the molar value.

System: BMP signal in MDA-231-D-BREFluc/Rluc cells
Assay: BMP signal inhibitory effect (AlphaScreen SureFire SMAD1 p-Ser463/465, BMP-6 stimulation)
Type: cell-based
Details: not given
Experimental: BMP Signal Inhibitory Effect
A BMP signal inhibitory activity of a compound of the present invention was evaluated according to the following method.
MDA-231-D-BREFluc/Rluc cells prepared according to the method described in Y. Katsuno et al., Oncogene, 27, 6322 (2008) were incubated at 37° C. for 2 hours together with test compounds, and BMP-6 (commercially available from R&D System, 507-BM-020) was then added thereto, and the mixture was additionally incubated at 37° C. for 30 minutes. A Lysis Buffer and Acceptor mix of AlphaScreen SureFire SMAD1 (p-Ser463/465) assay kit (commercially available from Perkin Elmer, TGRSM1S10K) were sequentially added thereto, the mixture was incubated at room temperature for 2 hours, and AlphaScreen Protein A kit (commercially available from Perkin Elmer, 6760617) was then added thereto, and standard AlphaScreen settings of Alpha Technology—compatible plate reader (commercially available from Perkin Elmer, EnSpire) was used for measurement.

| SMILES | pIC50 |
| --- | --- |
| CCn1cc(-c2ccnc(Nc3ccc(C4CC5CCC(C4)N5CCOC)cc3)n2)c(-c2cccnc2)n1 (stereo not shown) [Example 85, 4-(1-Ethyl-3-(pyridin-3-yl)-1H-pyrazol-4-yl)-N-(4-(8-(2-methoxyethyl)-8-azabicyclo [3.2.1]octan-3-yl)phenyl)pyrimidin-2-amine] | 8.14 |

Same assay, conditions: BMP-6 stimulated MDA-231-D-BREFluc/Rluc cells, phospho-SMAD1 AlphaScreen; read-out: IC50

| SMILES | pIC50 |
| --- | --- |
| COCCN1CCC(c2ccc(Nc3nccc(-c4cn(C5COC5)nc4-c4cccnc4)n3)cc2)CC1 [Example 12, N-(4-(1-(2-methoxyethyl)piperidin-4-yl)phenyl)-4-(1-(oxetan-3-yl)-3-(pyridin-3-yl)-1H-pyrazol-4-yl)pyrimidin-2-amine] | 8.18 |
| CCn1cc(-c2ccnc(Nc3ccc4c(c3)NCCC4)n2)c(-c2cccnc2)n1 [Example 170, N-(4-(1-Ethyl-3-(pyridin-3-yl)-1H-pyrazol-4-yl)pyrimidin-2-yl)-1,2,3,4-tetrahydroquinolin-7-amine] | 7.64 |
| CCn1cc(-c2ccnc(Nc3ccc4c(c3)CCN(CC(=O)O)C4)n2)c(-c2cccnc2)n1 [Example 172, 2-(6-((4-(1-ethyl-3-(pyridin-3-yl)-1H-pyrazol-4-yl)pyrimidin-2-yl)amino)-3,4-dihydroisoquinolin-2(1H)-yl)acetic acid] | 7.42 |
| CCn1cc(-c2ccnc(Nc3ccc4c(c3)CN(CC(C)(C)O)CC4)n2)c(-c2cccnc2)n1 [Example 106, 1-(7-((4-(1-Ethyl-3-(pyridin-3-yl)-1H-pyrazol-4-yl)pyrimidin-2-yl)amino)-3,4-dihydroisoquinolin-2(1H)-yl)-2-methylpropan-2-ol] | 8.46 |
| CCn1cc(-c2ccnc(Nc3ccc(N4CCOCC4)cc3)n2)c(-c2cccnc2)n1 [Example 22, 4-(1-ethyl-3-(pyridin-3-yl)-1H-pyrazol-4-yl)-N-(4-morpholinophenyl)pyrimidin-2-amine] | 7.72 |
| CCn1cc(-c2ccnc(Nc3ccc(N4CCN(CC(=O)N5CCCCC5)CC4)cc3)n2)c(-c2cccnc2)n1 [Example 31, 2-(4-(4-((4-(1-Ethyl-3-(pyridin-3-yl)-1H-pyrazol-4-yl)pyrimidin-2-yl)amino)phenyl)piperazin-1-yl)-1-(piperidin-1-yl)ethan-1-one] | 7.71 |
| CN1CCc2cc(Nc3nccc(-c4cn(CC5CCOC5)nc4-c4cccnc4)n3)ccc2C1 (stereo not shown) [Example 10, 2-Methyl-N-(4-(3-(pyridin-3-yl)-1-((tetrahydrofuran-3-yl)methyl)-1H-pyrazol-4-yl)pyrimidin-2-yl)-1,2,3,4-tetrahydroisoquinolin-6-amine] | 8.24 |
| CN1CCc2cc(Nc3nccc(-c4cn(C5COC5)nc4-c4cccnc4)n3)ccc2C1 [Example 8, 2-methyl-N-(4-(1-(oxetan-3-yl)-3-(pyridin-3-yl)-1H-pyrazol-4-yl)pyrimidin-2-yl)-1,2,3,4-tetrahydroisoquinolin-6-amine] | 8.17 |
| CCn1cc(-c2ccnc(Nc3ccc(C(=O)N(C)C4CCN(C)CC4)cc3)n2)c(-c2cccnc2)n1 [Example 4, 4-((4-(1-ethyl-3-(pyridin-3-yl)-1H-pyrazol-4-yl)pyrimidin-2-yl)amino)-N-methyl-N-(1-methylpiperidin-4-yl)benzamide] | 7.79 |
| COCCn1cc(-c2ccnc(Nc3ccc4c(c3)CCN(C)C4)n2)c(-c2cccnc2)n1 [Example 64, N-(4-(1-(2-Methoxyethyl)-3-(pyridin-3-yl)-1H-pyrazol-4-yl)pyrimidin-2-yl)-2-methyl-1,2,3,4-tetrahydroisoquinolin-6-amine] | 8.40 |
| CCn1cc(-c2ccnc(Nc3ccc(-c4cnn(CCOC)c4)cc3)n2)c(-c2cccnc2)n1 [Example 28, 4-(1-Ethyl-3-(pyridin-3-yl)-1H-pyrazol-4-yl)-N-(4-(1-(2-methoxyethyl)-1H-pyrazol-4-yl)phenyl)pyrimidin-2-amine] | 7.61 |
| CCn1cc(-c2ccnc(Nc3ccc4c(c3)OCCN(CCOC)C4)n2)c(-c2cccnc2)n1 [Example 91, N-(4-(l-Ethyl-3-(pyridin-3-yl)-1H-pyrazol-4-yl)pyrimidin-2-yl)-4-(2-methoxyethyl)-2,3,4,5-tetrahydrobenzo[f][1,4] oxazepin-8-amine] | 7.67 |
| CCn1cc(-c2ccnc(Nc3ccc4c(c3)OCCN(C)C4)n2)c(-c2cccnc2)n1 [Example 67, N-(4-(1-ethyl-3-(pyridin-3-yl)-1H-pyrazol-4-yl)pyrimidin-2-yl)-4-methyl-2,3,4,5-tetrahydrobenzo[f][1,4]oxazepin-8-amine] | 8.28 |
| COCCn1cc(-c2ccnc(Nc3ccc(OC4CN(CC(C)(C)O)C4)cc3)n2)c(-c2cccnc2)n1 [Example 107, 1-(3-(4-((4-(1-(2-Methoxyethyl)-3-(pyridin-3-yl)-1H-pyrazol-4-yl)pyrimidin-2-yl)amino)phenoxy)azetidin-1-yl)-2-methylpropan-2-ol] | 7.61 |
| CCn1cc(-c2ccnc(Nc3ccc(N4CCN(C(=O)CO)CC4)cc3)n2)c(-c2cccnc2)n1 [Example 174, 1-(4-(4-((4-(1-ethyl-3-(pyridin-3-yl)-1H-pyrazol-4-yl)pyrimidin-2-yl)amino)phenyl)piperazin-1-yl)-2-hydroxyethan-1-one] | 7.43 |
| CC(C)(O)Cn1cc(-c2ccnc(Nc3ccc4c(c3)CCN(C3COC3)C4)n2)c(-c2cccnc2)n1 [Example 131, 2-Methyl-1-(4-(2-((2-(oxetan-3-yl)-1,2,3,4-tetrahydroisoquinolin-6-yl)amino)pyrimidin-4-yl)-3-(pyridin-3-yl)-1H-pyrazol-1-yl)propan-2-ol] | 7.78 |
| CCn1cc(-c2ccnc(Nc3ccc(-n4cnc(N5CCN(C)CC5)n4)cc3)n2)c(-c2cccnc2)n1 [Example 180, 4-(1-ethyl-3-(pyridin-3-yl)-1H-pyrazol-4-yl)-N-(4-(3-(4-methylpiperazin-1-yl)-1H-1,2,4-triazol-1-yl)phenyl)pyrimidin-2-amine] | 8.04 |
| CC(=O)N1CCN(C(=O)c2ccc(Nc3nccc(-c4cn(CCc5ccccc5)nc4-c4cccnc4)n3)cc2)CC1 [Example 74, 1-(4-(4-((4-(1-phenethyl-3-(pyridin-3-yl)-1H-pyrazol-4-yl)pyrimidin-2-yl)amino)benzoyl)piperazin-1-yl)ethan-1-one] | 7.41 |
| CCn1cc(-c2ccnc(Nc3ccc4c(c3)CCN(CC(N)=O)C4)n2)c(-c2cccnc2)n1 [Example 90, 2-(6-((4-(1-Ethyl-3-(pyridin-3-yl)-1H-pyrazol-4-yl)pyrimidin-2-yl)amino)-3,4-dihydroisoquinolin-2(1H)-yl)acetamide] | 7.67 |
| CCn1cc(-c2ccnc(Nc3ccc4c(c3)CN(CCOC)C4)n2)c(-c2cccnc2)n1 [Example 61, N-(4-(1-ethyl-3-(pyridin-3-yl)-1H-pyrazol-4-yl)pyrimidin-2-yl)-2-(2-methoxyethyl)isoindolin-5-amine] | 8.15 |
| COCCN1Cc2ccc(Nc3nccc(-c4cn(CCOC)nc4-c4cccnc4)n3)cc2C1 [Example 62, 2-(2-Methoxyethyl)-N-(4-(1-(2-methoxyethyl)-3-(pyridin-3-yl)-1H-pyrazol-4-yl)pyrimidin-2-yl)isoindolin-5-amine] | 8.00 |
| CCn1cc(-c2ccnc(Nc3ccc(N4CCN(CCOC)CC4)c(C#N)c3)n2)c(-c2cccnc2)n1 [Example 83, 5-((4-(1-Ethyl-3-(pyridin-3-yl)-1H-pyrazol-4-yl)pyrimidin-2-yl)amino)-2-(4-(2-methoxyethyl)piperazin-1-yl)benzonitrile] | 7.84 |
| COCCN1CCN(c2ccc(Nc3nccc(-c4cn(CC5COC5)nc4-c4cccnc4)n3)cc2)CC1 [Example 102, N-(4-(4-(2-Methoxyethyl)piperazin-1-yl)phenyl)-4-(1-(oxetan-3-ylmethyl)-3-(pyridin-3-yl)-1H-pyrazol-4-yl)pyrimidin-2-amine] | 7.30 |
| COCCn1cc(-c2ccnc(Nc3ccc4c(c3)CN(C)C4)n2)c(-c2cccnc2)n1 [Example 60, N-(4-(1-(2-methoxyethyl)-3-(pyridin-3-yl)-1H-pyrazol-4-yl)pyrimidin-2-yl)-2-methylisoindolin-5-amine] | 8.19 |
| FC(F)(F)OCCn1cc(-c2ccnc(Nc3ccc(N4CCNCC4)cc3)n2)c(-c2cccnc2)n1 [Example 72, N-(4-(Piperazin-1-yl)phenyl)-4-(3-(pyridin-3-yl)-1-(2-(trifluoromethoxy)ethyl)-1H-pyrazol-4-yl)pyrimidin-2-amine] | 7.87 |
| CCn1cc(-c2ccnc(Nc3ccc(N4CCN(CC(=O)O)CC4)cc3)n2)c(-c2cccnc2)n1 [Example 173, 2-(4-(4-((4-(1-Ethyl-3-(pyridin-3-yl)-1H-pyrazol-4-yl)pyrimidin-2-yl)amino)phenyl)piperazin-1-yl)acetic acid] | 7.32 |
| CCn1cc(-c2ccnc(Nc3ccc(N4CCC[C@H](N)C4)cc3)n2)c(-c2cccnc2)n1 [Example 160, (S)-N-(4-(3-Aminopiperidin-1-yl)phenyl)-4-(1-ethyl-3-(pyridin-3-yl)-1H-pyrazol-4-yl)pyrimidin-2-amine] | 7.80 |
| CCn1cc(-c2ccnc(Nc3ccc4c(c3)CCN(CCOC)CC4)n2)c(-c2cccnc2)n1 [Example 93, N-(4-(1-Ethyl-3-(pyridin-3-yl)-1H-pyrazol-4-yl)pyrimidin-2-yl)-3-(2-methoxyethyl)-2,3,4,5-tetrahydro-1H-benzo [d] azepin-7-amine] | 8.42 |
| CCn1cc(-c2ccnc(Nc3ccc(-c4cnco4)cc3)n2)c(-c2cccnc2)n1 [Example 70, 4-(1-ethyl-3-(pyridin-3-yl)-1H-pyrazol-4-yl)-N-(4-(oxazol-5-yl)phenyl)pyrimidin-2-amine] | 7.47 |
| CCn1cc(-c2ccnc(Nc3ccc(C(=O)N4CCN(C5CCCCC5)CC4)cc3)n2)c(-c2cccnc2)n1 [Example 120, (4-Cyclohexylpiperazin-1-yl) (4-((4-(1-ethyl-3-(pyridin-3-yl)-1H-pyrazol-4-yl)pyrimidin-2-yl)amino)phenyl) methanone] | 8.21 |
